How the values were obtained:
[1] = test system: IL-1β; assay: Plasma level of IL-1β in normal healthy rats (ELISA); type: in vivo, rat; conditions: fat emulsion 20 mg/kg-body weight/day, days 3, 5 and 7
Source text: (§1) , plasma obtained form the EDTA-2K-treated blood on days 3, 5, and 7 of the experiment was used to determine plasma levels of interleukin 1β (hereinafter referred to as IL-1β) and tumor necrosis factor (hereinafter referred to as TNFα). For the determination, the rat IL-1β-ELISA system (manufactured by Amersham Pharmacia Biotek Co., Ltd.), the rat TNFα-ELISA system (manufactured by Amersham Pharmacia Biotek Co., Ltd.), and the BioRad microplate reader (MODEL550, Nippon BioRad laboratories, Co., Ltd.).

[2] = test system: TNFα; assay: Plasma level of TNFα in normal healthy rats (ELISA); type: in vivo, rat; conditions: fat emulsion 20 mg/kg-body weight/day, days 3, 5 and 7
Source text: as §1

[3] = test system: normal healthy rats; assay: Neutrophil counts and bone marrow cells in normal healthy rats (Example 28); type: in vivo, rat
Protocol: The effects of increasing neutrophil counts of the compound of Example 4 in normal healthy rats were studied.
(1) Male SD rats, 6-week old, purchased from Nippon SLC were used. The animal feed (MF, manufactured by Oriental Yeast Co., Ltd.) and drinking water (well water treated with 0.4±0.2 ppm hypochlorous acid) were given ad libitum during the period of the experiment. The animals were each housed in a hanging-type rat cage (manufactured by Nippon Cage K.K.) and kept at a temperature of 24±2° C. and a humidity of 55±5%.
(2) The glutathione derivative of Example 4 combined with the fat emulsion at 10, 20, or 30 mg/kg-body weight/day, and the fat emulsion alone as the negative control were each repeatedly administered into the tail vein for 6 days from day 1 to 6 of the experiment. Dosage was 10 ml/kg-body weight/day. From day 1 to 10 of the experiment, blood was drawn everyday from the jugular vein and the EDTA-2K-treated blood was obtained. Then the blood was used to determine the neutrophil counts using a general chemistry test instrument (Technicon H-1E, manufactured by Bayer-Sankyo K.K.).
Part of the negative control group on days 1, 7, and 10, and part of the Example 4—the fat emulsion 30 mg/kg-body weight/day administration group on days 3, 5, 7, and 10 of the experiment were bled to death from the abdominal aorta under anesthesia by the intraperitoneal administration of pentobarbital sodium. Then, the femoral bone marrow was harvested, smears were prepared therefrom using the wedge method, stained by the May-Giemsa stain, and examined under a microscope to determine the fractionation of nucleated bone marrow cells.

[4] = test system: HL-60 cells; assay: HL-60 cell differentiation induction, NBT reducing activity, DMSO as solvent (Example 21); type: cell-based, human
Source text: In a manner similar to that in Example 20, the in vitro activity of the glutathione derivatives of Examples 4, 5, and 8, and Comparative Example 3 were compared.
(1) The differences from Example 20 were: First, since the glutathione derivatives of Examples and Comparative Examples used dimethyl sulfoxide (DMSO) as the solvent because of the solubility of the compounds, the system contained 0.1-0.3 (v/v)% DMSO instead of ethanol. […] This caused slight differences in the sensitivity in the test results of the glutathione derivative of Example 4. Furthermore, in Example 21, the differentiation induction on HL-60 cells into granulocytic cells in the coexistence of 9-cis-RA was only evaluated.

[5] = Fat emulsion: particle distribution and content after 1.2 μm filtration (Examples 17, 18); type: physicochemical; conditions: final concentration about 1 mg/ml
Protocol: Preparation of the fat emulsion having as an active ingredient the glutathione derivative of Example 4 was carried out using a high-pressure injection type homogenizer.
(1) The high-pressure injection type homogenizer used was Nanomizer LA from Nanomizer K.K. Purified yolk lecithin, purified soybean oil, and glycerin used were those that can be intravenously injected.
(2) Purified yolk lecithin 6 g and purified soybean oil 55 g were mixed by a mixer while heating to homogeneity. To this was added 560 mg of the glutathione derivative of Example 4 and was further stirred to homogeneity. A suitable amount of glycerin and water for injection were added and rough-emulsified by a mixer, and pH was adjusted to 7.4 with an aqueous solution of sodium hydroxide. Water was further added to a total amount of 560 g, which was pure-emulsified using the Nanomizer LA at an emulsification pressure of 550 kgf/cm^2 by passing it through the emulsion part for 11 times. […]
When the emulsion was crushed with tetrahydrofuran before and after filtration with a 1.2 μm filter and the content of the glutathione derivative of Example 4 was measured by HPLC, it was confirmed that the content of 90% or more of that before filtration was retained, homogeneity was good, and the glutathione derivative of Example 4 was stably mixed in the oil phase emulsion particles. […]

[6] = Intravenous administration of high dosages, local reaction; type: in vivo; conditions: high dosages administered intravenously
[7] = Plasma concentration after intravenous administration to mice (Example 24); type: in vivo, mouse; conditions: iv tail vein 50 mg/kg, HPCD solution, 5 min, individual mice, quantitation limit about 1 μg/ml
Protocol: The blood levels of the glutathione derivatives of Example 4 and Comparative Example 1 were compared in mice that are a species having a high esterase activity in the blood.
(1) Male 8-week old BDF1 mice were purchased from Nippon SLC and used for the experiment. Until 9-week old when they were subjected to the experiment, the animals were kept at a temperature of 24±2° C. and a humidity of 55±5% under the condition under which the animals had free access to the animal feed (MF, Oriental Yeast Co., Ltd.) and drinking water (well water treated with 0.4±0.2 ppm hypochlorous acid).
After a fixed time, about 1 ml of blood was drawn from the heart of the animal under ethereal anesthesia (after drawing blood once, each mouse is sacrificed). The N number for each sample group at each time point was 2. After drawing, the blood was immediately cooled on ice and was centrifuged in the presence of sodium citrate to collect plasma. The plasma thus obtained was deproteinized with acetonitrile and then was analyzed by a C18 reverse phase high performance liquid chromatography using an aqueous solution of trifluoroacetic acid/acetonitrile system as the mobile phase to determine the concentration of glutathione derivative for each plasma.

Q: For `CCCCCCCCCCCCCCCCOC(=O)[C@@H](N)CCC(=O)N[C@@H](CSCc1ccccc1)C(=O)N[C@@H](C(=O)OCC)c1ccccc1.Cl` [Example 4, Glu(Cys(Bzl)-D-Phg-OEt)-O(Hexadecyl)hydrochloride], which “Plasma level of IL-1β relative to the negative control group” value [1] is on record?
A: No increases

Q: What about the “Plasma level of TNFα relative to the negative control group” value [2] of the same compound?
A: No increases

Q: What about the “Neutrophil counts in the peripheral blood relative to the negative control group” value ([3]; fat emulsion 30 mg/kg-body weight/day iv, days 1-6, days 2 and 5-8, significance 5%-1%) of the same compound?
A: statistically significant increase in the neutrophil counts

Q: And the “Neutrophilic myelocytic cells having the dividing ability in bone marrow” value ([3]; fat emulsion 30 mg/kg-body weight/day, days 3 and 5)?
A: increased

Q: And the “Neutrophilic myelocytic cells having no dividing ability in bone marrow” value ([3]; fat emulsion 30 mg/kg-body weight/day, maximum on day 7)?
A: increases were observed on day 5, 7, and 10

Q: And the “Differentiation induction activity compared with Comparative Example 3” value ([4]; HL-60, coexistence of 9-cis-RA)?
A: activity higher than that of Comparative Example 3

Q: What about the “Ratio of NBT reduction activity-positive cells” value ([4]; compound 3 × 10^−6 M in DMSO, Solvent control (EtOH - 0.1%)) of the same compound?
A: 0.6%

Q: What about the “Ratio of NBT reduction activity-positive cells” value ([4]; compound 3 × 10^−6 M in DMSO, with 9-cis-RA (5 × 10^−9 M)) of the same compound?
A: 29.9%

Q: And the “Ratio of NBT reduction activity-positive cells” value ([4]; compound 3 × 10^−7 M in DMSO, Solvent control (EtOH - 0.1%))?
A: 0.9%

Q: What about the “Ratio of NBT reduction activity-positive cells” value ([4]; compound 3 × 10^−7 M in DMSO, with 9-cis-RA (5 × 10^−9 M)) of the same compound?
A: 11.0%

Q: What about the “Ratio of NBT reduction activity-positive cells” value ([4]; compound 3 × 10^−8 M in DMSO, Solvent control (EtOH - 0.1%)) of the same compound?
A: 0.7%

Q: What about the “Ratio of NBT reduction activity-positive cells” value ([4]; compound 3 × 10^−8 M in DMSO, with 9-cis-RA (5 × 10^−9 M)) of the same compound?
A: 3.1%

Q: What about the “Ratio of NBT reduction activity-positive cells” value ([4]; compound 10^−6 M in DMSO, Solvent control (EtOH - 0.1%)) of the same compound?
A: 0.3%

Q: And the “Ratio of NBT reduction activity-positive cells” value ([4]; compound 10^−6 M in DMSO, with 9-cis-RA (5 × 10^−9 M))?
A: 21.2%

Q: What about the “Ratio of NBT reduction activity-positive cells” value ([4]; compound 10^−7 M in DMSO, Solvent control (EtOH - 0.1%)) of the same compound?
A: 0.7%

Q: What about the “Ratio of NBT reduction activity-positive cells” value ([4]; compound 10^−7 M in DMSO, with 9-cis-RA (5 × 10^−9 M)) of the same compound?
A: 5.6%

Q: And the “Ratio of NBT reduction activity-positive cells” value ([4]; compound 10^−8 M in DMSO, Solvent control (EtOH - 0.1%))?
A: 0.6%

Q: What about the “Ratio of NBT reduction activity-positive cells” value ([4]; compound 10^−8 M in DMSO, with 9-cis-RA (5 × 10^−9 M)) of the same compound?
A: 2.5%

Q: What about the “Content after filtration with a 1.2 μm filter” value ([5]; alcohol solution mixed with water for injection) of the same compound?
A: ≤ 75%

Q: What about the “Behaviour on mixing alcohol solution with water for injection” value [5] of the same compound?
A: immediately crystallized

Q: For `CCOC(=O)[C@@H](N)CCC(=O)N[C@@H](CSCc1ccccc1)C(=O)N[C@@H](C(=O)OCC)c1ccccc1.Cl` [Comparative Example 1, Glu(Cys(Bzl)-D-Phg-O(Et))-O(Et)hydrochloride, reference compound], which “Local reaction at the site of administration” value [6] is on record?
A: can cause inflammation at the site of administration

Q: And the Plasma concentration [7]?
A: ≤ 1000 ng/mL
